Like-named read-outs stand apart in the source and are kept apart here.
Legend:
depression = settings: patients, in words; cited from earlier work
[1] = molecular target: T1, 5-HT (serotonin) reuptake complex (Rattus norvegicus, UniProt P31652); assay: competition with 3H-paroxetine for the 5-HT reuptake complex in rat cortical brain homogenates (Ki); assay type: binding; settings: Ki of analogue relative to Ki of 6-NQP
T1 construct: from tissue; host or cells: rat cortical brain homogenates
Description: A potency ratio was also determined by comparing the Ki of the analogue to the Ki experimentally determined for the unsubstituted 6-Nitroquipazine.

[2] = molecular target: T1, 5-HT (serotonin) reuptake complex; assay: as above; assay type: binding
serotonin uptake system = assay: competition of known ligands against 5-125I-6-NQP in membrane preparation; assay type: binding, rat; settings: versus e.g. sertraline and fluoxetine, in words
Description: In the second set of experiments, competition experiments were performed with known agonist and antagonists to the serotonin uptake system, post synaptic serotonin receptors, and a receptors of other brain receptor systems. These compounds were incubated against 5-^125 I-6-NQP to determine the concentration needed to displace 5-^125 I-6-NQP from the membrane preparations. The strongest competitors were those specific for the serotonin uptake system, (FIG. 2).

[3] = in vivo brain uptake, clearance and regional distribution of 5-125I-6-NQP after i.v. injection; settings: rat
Description: Whole body distribution studies were performed in rats in accordance with the method of Carl Mathis, et al described in Nuclear Medicine and Biology 19: 571-588 (1992).
The ratios of regional activity concentrations to cerebellar concentrations are plotted in the left panel of FIG. 4. […] Also plotted in the right panel of FIG. 4 is the time course of specific binding (total regional radioactivity cerebellar radioactivity) in a representative tissue.

[4] = metabolite determination in brain and thyroid radioactivity after injection of 5-125I-6-NQP; assay type: in vivo, rat
Description: The brains of rats which had been injected with 25 μCi of 5-^125 I-6-NQP 6 h earlier were removed, homogenized, and repeatedly extracted with ethyl acetate and added cold 5-I-6-NQP carrier. The ethyl acetate fractions were pooled and evaporated, and the concentrate subject to TLC and HPLC (with fraction collection) analyses to determine metabolites in the brain.

5-HT reuptake complex [5] = assay: ex vivo autoradiography of rat brain; settings: 25 μCi, 2, 6 and 12 h post injection, in words
Description: Ex vivo autoradiography was performed on rats injected with 25 μCi 5-^125 I-6-NQP and killed at 2, 6 and 12 h post injection.

serotonin uptake sites = serotonin uptake sites (Rattus norvegicus, UniProt P31652); assay: Scatchard saturation binding of 5-125I-6-NQP to isolated rat brain membranes, control and PCA-treated; settings: PCA-treated versus control rats, in vitro, in words
5-HT reuptake complex [6] = assay: in vivo blocking of 5-125I-6-NQP brain binding by co-injected drugs; set-up: species or system rat; settings: co-injection, LSD 0.5 mg/kg; GBR-12909 and DMI 2 mg/kg, in words
Description: A critical test of the in vivo behavior of the radioligand is the ability to block its specific binding.

5-HT reuptake site = assay: neurotoxin (PCA) pretreatment study, 5-125I-6-NQP binding; assay type: in vivo, rat; settings: PCA 10 mg/kg for 2 days
Excerpt: The in vivo results were consistent with the reduction in Bmax measured by in vitro binding methods and indicated up to a 90% reduction in 5-HT reuptake site densities in lesioned rats.

[7] = rat cortical brain homogenates, 3H-paroxetine displacement, read-out: In vitro Inhibition Constants (Ki) for the 5-HT Reuptake Site

Sequence of serotonin uptake sites (P31652 whole entry): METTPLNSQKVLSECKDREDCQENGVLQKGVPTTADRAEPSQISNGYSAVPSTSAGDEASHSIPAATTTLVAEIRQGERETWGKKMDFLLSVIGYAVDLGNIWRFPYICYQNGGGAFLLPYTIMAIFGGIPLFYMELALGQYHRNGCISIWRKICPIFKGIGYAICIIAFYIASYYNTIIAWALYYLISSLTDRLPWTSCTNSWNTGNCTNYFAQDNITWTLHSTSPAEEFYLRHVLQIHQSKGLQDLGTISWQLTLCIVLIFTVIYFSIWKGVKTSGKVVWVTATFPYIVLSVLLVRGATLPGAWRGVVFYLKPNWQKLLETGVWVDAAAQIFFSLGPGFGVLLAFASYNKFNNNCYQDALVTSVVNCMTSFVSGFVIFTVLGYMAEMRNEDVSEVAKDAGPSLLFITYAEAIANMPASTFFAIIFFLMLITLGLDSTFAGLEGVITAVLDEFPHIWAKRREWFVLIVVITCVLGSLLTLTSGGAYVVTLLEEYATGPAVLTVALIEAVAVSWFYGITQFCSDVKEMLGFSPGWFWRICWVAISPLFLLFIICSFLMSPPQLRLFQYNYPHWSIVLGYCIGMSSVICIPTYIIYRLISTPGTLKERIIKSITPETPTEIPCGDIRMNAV
T1 sequence (P31652 whole entry, one chain of several): as the sequence (P31652 whole entry) above

For `CNCCC(Oc1ccc(C(F)(F)F)cc1)c1ccccc1` (racemic) [fluoxetine, (±)-N--Methyl-3-Phenyl-3-[(ααα-trifluoro-p-tolyl)oxy]propylamine], the “anti-depressant efficacy compared with certain tricyclic amine drugs” value (depression) is listed as “equal anti-depressant efficacy” and the “total side effects and dropouts compared with certain tricyclic amine drugs” value (depression) is listed as “fewer total side effects and dropouts”.
For `O=[N+]([O-])c1ccc2nc(N3CCNCC3)c(Br)cc2c1` [3-Br-6-NQP, 3-Bromo-6-nitro-2-piperazinylquinoline], the “Potency Ratio” value [1] was 42 and the Ki [2] was 9.6 ± 2.6 nM.
In the case of `O=[N+]([O-])c1ccc2nc(N3CCNCC3)cc(Br)c2c1` [4-Br-6-NQP], the “Potency Ratio” value [1] is reported as 870 and the Ki [2, 7] is reported as 200 ± 80 nM.
In the case of `O=[N+]([O-])c1ccc2nc(N3CCNCC3)ccc2c1Br` [5-Br-6-NQP, 5-Bromo-6-nitro-2-piperazinylquinoline], the “Potency Ratio” value [1] is reported as 0.57 and the Ki [2] is reported as 0.13 ± 0.02 nM.
In the case of `O=[N+]([O-])c1ccc2nc(N3CCNCC3)ccc2c1[125I]` [5-^125 I-6-NQP, [^125 I]5-Iodo-6-nitro-2-piperazinylquinoline], the “relative potency for the uptake site versus other serotonin uptake ligands” value (serotonin uptake system) is reported as “greater than that observed for other serotonin uptake ligands”, the whole brain accumulation ([3]; 25 μCi (11 pmoles) i.v., 5 min post injection) is reported as 1.9 % of the injected dose and the “ratios of regional to cerebellar activity concentrations” value ([3]; i.v., 12 h period post injection, in words) is reported as “increase in a nearly linear manner over the 12 h period post injection”. The brain penetration ([3]; i.v., in words) was “good brain penetration”, the “clearance of nonspecific binding (cerebellum) versus regions of high 5-HT innervation” value ([3]; i.v., in words) was “more rapid than that of radioactivity clearance from brain regions containing high concentrations of 5-HT innervation” and the “loss of activity from the brain” value ([3]; i.v., over 12 h, in words) was “slow steady loss of activity from the brain over 12 h”. The remaining at 6 h ([4]; 25 uCi, rat brain, 25 μCi, 6 h, read-out: unmetabolized radioligand in brain (organic phase radioactivity)) was over 98%, the “metabolic deiodination in vivo” value ([4]; rat, 6 h, in words) was “metabolic deiodination of 5-^125 I-6-NQP occurs in vivo in rats” and the “radioactivity in the thyroid gland” value ([4]; rat, 6 h post injection) was 11 % of the injected dose. The “binding distribution in rat brain by ex vivo autoradiography” value (5-HT reuptake complex [5]) was “consistent with the known neuroanatomical distribution of the 5-HT reuptake complex”, the “affinity (Kd) after PCA treatment” value (serotonin uptake sites) was “little change in the affinity (Kd)” and the “affinity (Kd) after PCA treatment” value (serotonin uptake sites; listed as INQUIP) was “without change in affinity”. The “total binding (Bmax) after PCA treatment” value (serotonin uptake sites; listed as INQUIP) was “enormous reduction in binding after PCA treatment”.
In the case of `O=[N+]([O-])c1ccc2nc(N3CCNCC3)ccc2c1` [6-NQP, 6-nitro-2-N-piperazinylquinoline, reference compound], the “Potency Ratio” value [1] is reported as 1 and the Ki [2, 7] is reported as 0.23 ± 0.06 nM.
For `O=[N+]([O-])c1cc2ccc(N3CCNCC3)nc2cc1Br` [7-Br-6-NQP, 7-Bromo-6-nitro-2-piperazinylquinoline], the “Potency Ratio” value [1] was 18 and the Ki [2] was 4.1 ± 1.5 nM.
For `O=[N+]([O-])c1cc(Br)c2nc(N3CCNCC3)ccc2c1` [8-Br-6-NQP, 8-Bromo-6-nitro-2-piperazinylquinoline], the “Potency Ratio” value [1] was 78 and the Ki [2] was 18 ± 3 nM.
In the case of `Fc1ccc(C(OCCN2CCN(CCCc3ccccc3)CC2)c2ccc(F)cc2)cc1` [GBR-12909], the “radioactivity concentrations in brain regions” value (5-HT reuptake complex [6]) is reported as “little effect on radioactivity concentrations in these regions”.
In the case of `CCN(CC)C(=O)[C@@H]1C=C2c3cccc4[nH]cc(c34)C[C@H]2N(C)C1` [LSD], the “radioactivity concentrations in brain regions” value (5-HT reuptake complex [6]) is reported as “little effect on radioactivity concentrations in these regions”.
In the case of `CC(N)Cc1ccc(Cl)cc1` (stereo not shown) [PCA, p-chloroamphetamine], the “specifically bound radioactivity after PCA pretreatment” value (5-HT reuptake site; i.v. 5-125I-6-NQP two weeks later, in words) is reported as “regionally selective reduction of specifically bound radioactivity” and the “reduction in 5-HT reuptake site densities in lesioned rats” value (5-HT reuptake site; two weeks before) is reported as at most 90%.

Source: US5372813A (priority 1992, dated 1994)
